Experimental data published in patent US20170006866A1, “PHYTOSANITARY COMPOSITION” (INSTITUT NATIONAL DE LA RECHERCHE AGRONOMIQUE-INRA, priority 2014, published 2017).

How the values were obtained:
Format in all cases: in vivo
Myzus persicae [1] = assay: Analysis of repellent effect: choice test between control Ap3 medium and test medium, phagostimulation index; conditions: Myzus persicae larvae, doses 0 to 1 mM in Ap3 medium
Source text: a) Analysis of repellent effect: the method used is that developed by Yvan Rahbe (Rahbé & Febvay (1993) Entomologia Experimentalis et Applicata 67: 149-160; Chen (1996) Thesis submitted to Institut National des Sciences Appliquées, Lyon, France: 158 p) within the scope of research on the chemical determinants of the resistance of plants to various species of aphids (Aphis gossypii, Acyrthosiphon pisum), and adapted to the green aphid Myzus persicae.
The objective is to evaluate the attractive or repellent nature of a candidate molecule, at different concentrations, either with respect to control base medium (dose “0”), or with respect to another substance. […]
The medium (35 μl) is poured between two Parafilm® membranes stretched onto an Eppendorf® cone. […] The following morning, the number of aphids fixed on each medium is then recorded. […] A phagostimulation index, representing the degree of appetence of the test medium for the aphid, is calculated as follows: […]

Acyrthosiphon pisum = assay: Toxicity on larval growth (cumulative larval mortality on supplemented Ap3 medium), pea aphid
Description: (§1) b) Measurement of the toxicity of chicoric acid or caftaric acid on larval growth of the green peach aphid (Myzus persicae) and the pea aphid (Acyrthosiphon pisum)
(§2) The objective is to quantify the toxic effect of chicoric acid or caftaric acid on the aphid for the period of larval growth thereof, i.e. 8 to 10 days for Myzus persicae and Acyrthosiphon pisum at 19° C. The molecule is added at different concentrations to the Ap3 control nutrient medium. The dose “0” corresponds to Ap3 medium alone.
(§3) The medium (75 μl) is poured between two UV-sterilized Parafilm® stretched onto a cylindrical PVC support (h=1.5 cm, d=2 cm), under sterile conditions.
(§4) On the Day D0, 20 neonate larvae are deposited inside the cylinder, which is then turned over and applied to a square of Parafilm©. The dishes are placed in filtered light (16 hours day/8 hours night) and in a chamber at 19° C. The fixation percentage is recorded after 1 hour as a short-term phagostimulation indicator and to check that no anomaly occurred during aphid deposition. The larval mortality is recorded daily at the end of the day. […] On the day of the imaginal moult thereof, the aphids having reached the adult aptera stage are deposited successively on a precision balance (d=0.01 mg) and the cumulative weights are recorded for each concentration of each of the two molecules tested. The individual weights are calculated subsequently. […]

Myzus persicae [2] = assay: Toxicity on larval growth (cumulative larval mortality on supplemented Ap3 medium), green peach aphid; conditions: larval growth D1-D7
Description: as §1, §2, §3, §4

Q: What does the source list for `O=C(/C=C/c1ccc(O)c(O)c1)O[C@@H](C(=O)O)[C@@H](OC(=O)/C=C/c1ccc(O)c(O)c1)C(=O)O` [chicoric acid, dicaffeyl tartaric acid]?
A: dose from which a highly significant repellent effect is displayed (Myzus persicae [1]; 15 hours at 19° C.): ≥ 62.5 µM; repellent effect (result in words) (Myzus persicae [1]): significant repellent effect; dose from which a very significant toxic effect (p<0.001) is observed (Acyrthosiphon pisum; Acyrthosiphon pisum larval growth): ≥ 0.5 mM; mortality at 500 µM (Acyrthosiphon pisum; Acyrthosiphon pisum, read-out: larval mortality): > 80%; larval mortality (Myzus persicae [2]; from 0.125 mM in Ap3 medium): ~80%; larval mortality (Myzus persicae [2]; from 0.25 mM in Ap3 medium): 100%
